According to publication PMC12152883, “Bile acids inhibit equilibrative adenosine transport to alter adenosine receptor signaling in cholestasis” (The Journal of Biological Chemistry, 2025):
“And” between values parts separate entries of the source, which are not always exact repeats. Equal entries are not always repeated. Where two headings read alike, the source gives them in different places.

Experiments:
ENT2 = target: T1, ENT2 (Homo sapiens, UniProt Q14542); assay: Radiolabeled BA transport in ENT2 mRNA-injected Xenopus oocytes; assay type: cell-based; parameters: expressed in transfected cells; host or cells: Xenopus laevis oocytes injected with in vitro-transcribed capped mRNA from pOX-hENT2; conditions: for fold increased transport activity compared with H2O-injected oocytes: 3H-labelled BA, Na+-containing buffer, pH 7.4
T1 sequence (Q14542 1-456): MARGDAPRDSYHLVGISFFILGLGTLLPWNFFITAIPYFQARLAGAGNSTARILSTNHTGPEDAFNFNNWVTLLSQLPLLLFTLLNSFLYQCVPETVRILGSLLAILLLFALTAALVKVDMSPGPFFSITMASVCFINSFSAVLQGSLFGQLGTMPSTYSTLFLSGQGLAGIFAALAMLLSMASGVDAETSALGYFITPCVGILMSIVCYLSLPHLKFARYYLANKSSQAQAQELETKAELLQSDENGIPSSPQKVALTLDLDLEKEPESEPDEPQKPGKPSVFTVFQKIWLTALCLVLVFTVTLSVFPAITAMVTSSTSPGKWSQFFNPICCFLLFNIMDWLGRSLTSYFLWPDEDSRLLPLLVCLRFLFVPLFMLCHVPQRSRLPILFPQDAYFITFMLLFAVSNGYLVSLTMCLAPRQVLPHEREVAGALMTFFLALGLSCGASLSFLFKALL
Method: We used a Xenopus oocyte-based transport assay that was previously used to examine BA transport by plasma membrane–directed ENT3 with a truncated N-terminus (that harbors lysosomal targeting motif) to experimentally verify whether ENT2 is capable of translocating BAs across the cell membrane ([24]). We tested both ENT1 and ENT2 along with CNT2, a purine nucleoside-specific concentrative transporter, to investigate their capacities to transport radiolabeled BAs. […] Transport was measured at pH 7.4, which is the closest pH to the pH of the extracellular fluid in which cells are exposed to solutes such as BAs to conduct plasma membrane transport ([29]).
(§1) The generated pOX expression constructs were linearized with either the Not1 or Sac1 restriction enzymes. The digested products were purified via phenol‒chloroform extraction. The mRNAs were synthesized using mMESSAGE mMACHINE (Ambion) transcription kits according to the manufacturer’s instructions. The mRNAs were purified via lithium precipitation. Oocytes were procured from Ecocyte. Prior to experiments, procured oocytes were defolliculated by treating with collagenase A-OR II solution followed by washing with Barth’s solution. Following microscopic verification, selected oocytes were incubated to recover overnight at 25 °C in a shaker incubator. Fifty nanoliters (400–800 ng/μl) of equal amounts of mRNAs were injected into defolliculated oocytes the next day. Expression of plasmids was analyzed after RNA isolation from oocyte extracts and conducting qPCR analysis with gene-specific primers as described earlier ([30]). The injected oocytes were incubated at 15 °C for 24 h before transport assays were performed. The uptake of radiolabeled substrates was measured after a 30 min incubation in transport buffer (100 mM NaCl, 2 mM KCl, 1 mM CaCl2, 1 mM MgCl2, and 10 mM Hepes, pH 7.4) at room temperature. Uptake was terminated by washing the oocytes three times with arrest buffer containing 20 mM uridine. Individual oocytes were shaken overnight in 10% SDS for complete dissolution, and then the radioactivity was quantified with a Beckman liquid scintillation counter. The data are presented as the mean ± SD (n = 8–12 oocytes). A representative experiment from 3 to 5 independent experiments is presented.

ENT3 = target: T2, ENT3 (Homo sapiens, UniProt Q9BZD2); assay: Inhibition of 3H-nucleoside influx by BAs in ENT3-expressing Xenopus oocytes; assay type: cell-based
T2 construct: plasma membrane–directed ENT3 with a truncated N-terminus (that harbors lysosomal targeting motif); expressed in transfected cells; host or cells: Xenopus laevis oocytes injected with in vitro-transcribed mRNA from pOX-Δ36hENT3
T2 sequence (Q9BZD2 with tags, fused parts or gaps): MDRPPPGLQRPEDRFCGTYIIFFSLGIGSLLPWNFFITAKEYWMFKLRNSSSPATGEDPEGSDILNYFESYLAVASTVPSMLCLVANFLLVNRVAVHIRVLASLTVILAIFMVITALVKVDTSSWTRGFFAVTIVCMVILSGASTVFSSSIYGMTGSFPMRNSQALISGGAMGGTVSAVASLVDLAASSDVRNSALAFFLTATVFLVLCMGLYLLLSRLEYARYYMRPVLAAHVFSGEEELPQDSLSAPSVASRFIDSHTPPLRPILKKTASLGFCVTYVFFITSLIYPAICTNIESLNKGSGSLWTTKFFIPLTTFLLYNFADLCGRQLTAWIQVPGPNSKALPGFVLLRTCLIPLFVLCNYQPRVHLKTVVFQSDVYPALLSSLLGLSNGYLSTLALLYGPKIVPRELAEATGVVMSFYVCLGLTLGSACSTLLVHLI
Description: We expressed individual ENTs (ENT1, ENT2, and ENT3) in X. laevis oocytes (as described above) and analyzed the Ado influx from each of the ENTs in the presence of different BAs to better understand whether the inhibition profiles differ across human ENTs. […] We also conducted an analysis of the concentration-dependent inhibition of Ado transport to estimate the IC50 values of the BAs (Fig. 4, D–F and Table 2).
Inhibition of Ado influx in H2O- and ENT-injected oocytes by treatment with different BAs at 100 μM. D–F, concentration-dependent inhibition of Ado influx in ENT-injected oocytes by different BAs. The bars represent the mean ± SD (n = 8–12 oocytes). A representative experiment from 3 to 5 independent experiments is presented. Statistical analysis was performed using one-way ANOVA with Dunnett’s multiple comparisons test; ∗p < 0.032, ∗∗p < 0.0021, ∗∗∗∗p < 0.0001.
as §1, with “The uptake of radiolabeled substrates was measured after a 30 min incubation in transport buffer (100 mM NaCl, 2 mM KCl, 1 mM CaCl2, 1 mM MgCl2, and 10 mM Hepes, pH 7.4) at room temperature.” left out

[1] = 3H-Ado 20 μM, sodium-free buffer, read-out: ENT3 IC50 (Ado uptake)
[2] = BA 100 μM, 3H-Ado 20 μM, sodium-free buffer

SMILES	Km (ENT2; oocytes, Fig. 2B) [µM]	Vmax of BA transport by ENT2 (ENT2; oocytes, Fig. 2B) [pmol/oocyte∗30 min]	pH dependence of 3H-CA transport mediated by ENT2 (ENT2; pH 5.5 to pH 7.4)	IC50 (ENT3; [1]) [nM]	ENT3 % uptake inhibition (Ado) (ENT3; [2])	fold increased transport activity compared with H2O-injected oocytes (ENT2) [fold]	inhibition of guanosine transport activity of ENT3 (ENT3; BA 100 μM, 3H-guanosine 20 μM)	IC50 (ENT3) [nM]
C[C@H](CCC(=O)O)[C@H]1CC[C@H]2[C@@H]3[C@H](O)C[C@@H]4C[C@H](O)CC[C@]4(C)[C@H]3C[C@H](O)[C@]12C [CA, cholic acid]	~195	2.84	not dependent on pH	1200 ± 400	77.1%			
C[C@H](CCC(=O)O)[C@H]1CC[C@H]2[C@@H]3CC[C@@H]4C[C@H](O)CC[C@]4(C)[C@H]3C[C@H](O)[C@]12C [DCA, deoxycholic acid]		3.359		600 ± 100	79% and 79.9%	1.78	inhibited	
C[C@H](CCC(=O)NCCS(=O)(=O)O)[C@H]1CC[C@H]2[C@@H]3[C@H](O)C[C@@H]4C[C@H](O)CC[C@]4(C)[C@H]3C[C@H](O)[C@]12C [TCA, taurocholic acid]					72.3%	2.23		52600 ± 22200
